Where two headings read alike, the source gives them in different places.
How the values were obtained:
CYP2D6 = CYP2D6 (Homo sapiens, UniProt P10635); experiment: CYP inhibition assay (fluorescent probe, recombinant protein); format: in vitro ADME; conditions: n=1
Abl = Abl (Homo sapiens, UniProt P00519); experiment: protein kinase IC50 determination (ATP at Km); format: biochemical; conditions: ATP concentration at Km
FGFR1 = FGFR1 (Homo sapiens, UniProt P11362); experiment: protein kinase IC50 determination (ATP at Km); format: biochemical; conditions: ATP concentration at Km
Pharmacokinetics in rat = format: in vivo, male Sprague-Dawley rats
From the text: (§1) Non-compartmental (model independent) methods were used to analyze the plasma concentration time-curves derived from all species as described below. Clearance (Cl), calculated percent extraction ratios (ER %), volume of distribution (Vz), time to […] (t1/2) and exposure (AUC, area under the curve) values are provided below for mouse, rat, and monkey, respectively.
2. […] Blood was sampled at the same time points as listed for the Mouse PK study.

Solubility determination = format: physicochemical
[1] = Pharmacokinetics in mouse; format: in vivo, female Balb/c mice
Experimental: as §1
1. […] Blood samples were obtained at 15 and 30 minutes, and 1, 2, 4, 8 and 24 hours after PO dosing, and at 15 and 30 minutes, and 1, 2, 4, and 8 hours for IV administration.

Tie2 = Tie2 (Homo sapiens, UniProt Q02763); experiment: protein kinase IC50 determination (ATP at Km); format: biochemical; conditions: ATP concentration at Km
[2] = tested on: Collagen Induced Arthritis (CIA); experiment: Rat model of collagen induced arthritis (CIA); format: in vivo, Female Lewis rats; conditions: BID×7, dosed as prodrug Compound 74; for ED50: PO
Experimental: Female Lewis rats (200 g); n=8 per treatment group were injected with type II collagen/Freund's incomplete adjuvant (300 μL injection of 0.6 mg collagen, dorsal surface Day 0 and Day 6). […] ENBREL® served as a positive control. Compounds were administered on days 11-18. Ankle diameter was measured at day 11 and every day thereafter (FIG. 70). At study end paw weight and microscopic histology were determined. Both hind paws and knees were removed, hind paws weighed and then placed, with knees, in formalin. Following 1-2 days in fixative and 4-5 days in decalcifier, ankle joints and knees were processed, embedded, sectioned and stained with toluidine blue. Ankles and knees were given scores of 0-5 for inflammation, pannus formation and bone resorption.

RPMI 8226 cells = experiment: RPMI 8226 multiple myeloma tumor model; format: in vivo, Female Scid-beige mice
Experimental: Female Scid-beige mice (17-20 g), n=8 per group, were implanted with 15×10^6 RPMI 8226 cells subcutaneously on the right flank with either vehicle (20% Trappsol, 10 mL/kg, PO, BID×14) or Compound 74 (100 mg/kg active drug, PO, BID×14). Test compounds were administered by oral gavage at the indicated doses and schedules when tumors reached 200±50 mm^3 in size.

p38 pathway = experiment: HeLa cell phospho-HSP27 assay, anisomycin-stimulated; format: cell-based; conditions: Homo sapiens; HeLa cells, 60 min pretreatment, 1 μg/mL anisomycin 60 min; read-out: apparent IC50, p38 pathway in cells (phospho-HSP27 Ser78)
From the text: Cells were labeled with antibodies against the phosphorylated form of HSP27 (Ser78) and GAPDH as a normalization control. Cells were imaged and quantified using a LI-COR Aeriustm imager.

K562 = K562 cell viability (CellTiter Blue); format: cell-based; conditions: Homo sapiens; K562, 72 hours
From the text: Cell viability was subsequently measured using CellTiter Blue (Promega) to determine IC50 values for each compound.

Lyn = Lyn (Homo sapiens, UniProt P07948); experiment: protein kinase IC50 determination (ATP at Km); format: biochemical; conditions: ATP concentration at Km
Fyn = Fyn (Homo sapiens, UniProt P06241); experiment: protein kinase IC50 determination (ATP at Km); format: biochemical; conditions: ATP concentration at Km
CYP1A2 = CYP1A2 (Homo sapiens, UniProt P05177); experiment: CYP inhibition assay (fluorescent probe, recombinant protein); format: in vitro ADME; conditions: n=1
CYP2C19 = target: T1, CYP2C19 (Homo sapiens, UniProt P33261); experiment: CYP inhibition assay (LC/MS, pooled human liver microsomes); format: in vitro ADME; conditions: n=1, read-out: CYPC19 IC50
T1 construct: using pooled human liver microsomes (n=1); from tissue; host or cells: pooled human liver microsomes

micronucleus = experiment: Micronucleus assay (in vitro); format: cell-based
Experimental: hERG assay was performed using a standard patch clamp protocol. AMES assay (bacterial reverse mutation assay) was performed according to protocol. […] In vitro and in vivo micronucleus assays were performed according to protocol.

[3] = tested on: TNF-α production in whole blood; experiment: TNF-α production in LPS-treated whole blood (ELISA); format: cell-based; conditions: whole blood treated with LPS, read-out: apparent IC50, inhibition of TNF-α production
Hck = Hck (Homo sapiens, UniProt P08631); experiment: protein kinase IC50 determination (ATP at Km); format: biochemical; conditions: ATP concentration at Km
[4] = Pharmacokinetics in monkey; format: in vivo, male Cynomologus monkeys
From the text: as §1
3. […] Blood was sampled at the same time points as listed for the Mouse PK study.

RPMI 8226 = RPMI 8226 cell viability (CellTiter Blue); format: cell-based; conditions: RPMI 8226, 72 hours
Experimental: Cell viability was then measured using CellTiter Blue (Promega) to determine IC50 values for each compound (Table 8). […] MG-132 produced an IC50 that was within historical ranges of in-house testing (Table 8).

Arg = Arg (Homo sapiens, UniProt P42684); experiment: protein kinase IC50 determination (ATP at Km); format: biochemical; conditions: ATP concentration at Km
[5] = male, Sprague-Dawley, plasma, IV: 1 mg/kg
[6] = female, Balb/c, plasma, IV: 1 mg/kg

Sequence of Tie2 (Q02763 23-1124, species assumed): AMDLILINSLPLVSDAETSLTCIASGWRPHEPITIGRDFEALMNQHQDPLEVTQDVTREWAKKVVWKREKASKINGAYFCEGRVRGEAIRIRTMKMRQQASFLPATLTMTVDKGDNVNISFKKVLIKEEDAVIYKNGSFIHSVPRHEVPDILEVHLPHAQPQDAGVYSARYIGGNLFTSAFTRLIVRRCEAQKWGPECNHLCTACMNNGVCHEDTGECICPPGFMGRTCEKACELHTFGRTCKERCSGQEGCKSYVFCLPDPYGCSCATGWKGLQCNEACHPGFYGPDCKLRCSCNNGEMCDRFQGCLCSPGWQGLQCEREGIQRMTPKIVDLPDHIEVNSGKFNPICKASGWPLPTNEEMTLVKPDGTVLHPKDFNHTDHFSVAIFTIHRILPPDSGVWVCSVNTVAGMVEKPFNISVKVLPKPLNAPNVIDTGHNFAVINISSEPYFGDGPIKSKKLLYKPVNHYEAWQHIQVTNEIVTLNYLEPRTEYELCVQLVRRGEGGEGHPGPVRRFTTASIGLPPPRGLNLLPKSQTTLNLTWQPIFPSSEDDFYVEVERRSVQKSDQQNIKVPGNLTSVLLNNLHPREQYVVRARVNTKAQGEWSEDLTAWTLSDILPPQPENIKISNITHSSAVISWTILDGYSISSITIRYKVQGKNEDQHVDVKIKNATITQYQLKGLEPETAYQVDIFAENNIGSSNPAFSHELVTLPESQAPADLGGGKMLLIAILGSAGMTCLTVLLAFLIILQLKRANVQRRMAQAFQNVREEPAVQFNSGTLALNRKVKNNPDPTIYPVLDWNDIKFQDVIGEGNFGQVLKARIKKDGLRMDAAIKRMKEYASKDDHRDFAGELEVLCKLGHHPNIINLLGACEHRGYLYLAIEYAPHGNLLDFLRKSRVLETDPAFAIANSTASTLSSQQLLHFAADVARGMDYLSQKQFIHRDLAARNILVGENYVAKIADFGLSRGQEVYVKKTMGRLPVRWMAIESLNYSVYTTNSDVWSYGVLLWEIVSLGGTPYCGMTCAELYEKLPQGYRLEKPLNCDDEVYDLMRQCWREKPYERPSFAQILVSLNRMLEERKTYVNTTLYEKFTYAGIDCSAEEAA
Sequence of Arg (P42684 whole entry): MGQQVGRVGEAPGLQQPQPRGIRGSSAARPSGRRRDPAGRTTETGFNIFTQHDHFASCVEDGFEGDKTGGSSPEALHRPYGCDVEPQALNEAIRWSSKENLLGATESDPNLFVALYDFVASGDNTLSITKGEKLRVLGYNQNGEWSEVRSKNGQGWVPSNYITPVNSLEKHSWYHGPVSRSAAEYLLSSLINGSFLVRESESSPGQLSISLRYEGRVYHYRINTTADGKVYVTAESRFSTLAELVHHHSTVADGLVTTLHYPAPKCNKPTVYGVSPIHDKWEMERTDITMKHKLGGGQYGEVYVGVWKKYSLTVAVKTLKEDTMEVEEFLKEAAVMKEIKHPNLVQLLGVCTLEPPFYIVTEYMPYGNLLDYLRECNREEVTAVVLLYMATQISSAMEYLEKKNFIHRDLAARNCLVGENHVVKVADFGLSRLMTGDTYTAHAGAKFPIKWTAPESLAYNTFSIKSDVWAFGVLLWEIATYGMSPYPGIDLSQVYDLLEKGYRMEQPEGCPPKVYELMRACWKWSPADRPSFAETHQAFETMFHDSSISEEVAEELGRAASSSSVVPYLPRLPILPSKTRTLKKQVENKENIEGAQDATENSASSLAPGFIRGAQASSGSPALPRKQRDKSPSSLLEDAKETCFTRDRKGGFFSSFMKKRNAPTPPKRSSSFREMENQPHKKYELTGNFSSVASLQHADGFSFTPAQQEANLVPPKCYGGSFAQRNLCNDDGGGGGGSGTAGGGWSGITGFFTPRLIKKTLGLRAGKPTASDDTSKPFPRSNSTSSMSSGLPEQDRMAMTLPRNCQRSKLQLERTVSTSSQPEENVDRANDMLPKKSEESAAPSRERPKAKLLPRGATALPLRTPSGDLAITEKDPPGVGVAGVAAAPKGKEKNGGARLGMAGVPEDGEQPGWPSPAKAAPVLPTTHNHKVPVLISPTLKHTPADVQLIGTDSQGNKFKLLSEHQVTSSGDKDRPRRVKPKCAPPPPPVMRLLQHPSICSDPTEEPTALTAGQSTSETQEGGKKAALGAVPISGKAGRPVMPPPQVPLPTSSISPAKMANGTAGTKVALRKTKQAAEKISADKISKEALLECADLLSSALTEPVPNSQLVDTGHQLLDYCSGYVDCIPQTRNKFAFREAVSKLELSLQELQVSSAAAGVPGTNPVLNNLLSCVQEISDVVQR
Sequence of CYP1A2 (P05177 whole entry, species assumed): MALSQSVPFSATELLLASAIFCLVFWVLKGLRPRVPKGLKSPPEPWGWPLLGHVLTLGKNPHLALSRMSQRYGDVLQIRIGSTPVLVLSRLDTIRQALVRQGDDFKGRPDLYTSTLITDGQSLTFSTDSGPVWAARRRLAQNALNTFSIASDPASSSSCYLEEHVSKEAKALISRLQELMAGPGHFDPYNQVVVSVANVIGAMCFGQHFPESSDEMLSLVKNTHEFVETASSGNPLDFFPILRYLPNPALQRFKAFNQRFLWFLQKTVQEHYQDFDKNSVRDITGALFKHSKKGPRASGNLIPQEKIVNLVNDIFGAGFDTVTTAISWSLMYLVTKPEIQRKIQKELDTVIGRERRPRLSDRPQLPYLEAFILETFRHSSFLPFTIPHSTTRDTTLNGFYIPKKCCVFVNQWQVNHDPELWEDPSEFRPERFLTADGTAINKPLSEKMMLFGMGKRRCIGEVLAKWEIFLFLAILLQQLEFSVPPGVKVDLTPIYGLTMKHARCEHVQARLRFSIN
Sequence of Abl (P00519 whole entry, species assumed): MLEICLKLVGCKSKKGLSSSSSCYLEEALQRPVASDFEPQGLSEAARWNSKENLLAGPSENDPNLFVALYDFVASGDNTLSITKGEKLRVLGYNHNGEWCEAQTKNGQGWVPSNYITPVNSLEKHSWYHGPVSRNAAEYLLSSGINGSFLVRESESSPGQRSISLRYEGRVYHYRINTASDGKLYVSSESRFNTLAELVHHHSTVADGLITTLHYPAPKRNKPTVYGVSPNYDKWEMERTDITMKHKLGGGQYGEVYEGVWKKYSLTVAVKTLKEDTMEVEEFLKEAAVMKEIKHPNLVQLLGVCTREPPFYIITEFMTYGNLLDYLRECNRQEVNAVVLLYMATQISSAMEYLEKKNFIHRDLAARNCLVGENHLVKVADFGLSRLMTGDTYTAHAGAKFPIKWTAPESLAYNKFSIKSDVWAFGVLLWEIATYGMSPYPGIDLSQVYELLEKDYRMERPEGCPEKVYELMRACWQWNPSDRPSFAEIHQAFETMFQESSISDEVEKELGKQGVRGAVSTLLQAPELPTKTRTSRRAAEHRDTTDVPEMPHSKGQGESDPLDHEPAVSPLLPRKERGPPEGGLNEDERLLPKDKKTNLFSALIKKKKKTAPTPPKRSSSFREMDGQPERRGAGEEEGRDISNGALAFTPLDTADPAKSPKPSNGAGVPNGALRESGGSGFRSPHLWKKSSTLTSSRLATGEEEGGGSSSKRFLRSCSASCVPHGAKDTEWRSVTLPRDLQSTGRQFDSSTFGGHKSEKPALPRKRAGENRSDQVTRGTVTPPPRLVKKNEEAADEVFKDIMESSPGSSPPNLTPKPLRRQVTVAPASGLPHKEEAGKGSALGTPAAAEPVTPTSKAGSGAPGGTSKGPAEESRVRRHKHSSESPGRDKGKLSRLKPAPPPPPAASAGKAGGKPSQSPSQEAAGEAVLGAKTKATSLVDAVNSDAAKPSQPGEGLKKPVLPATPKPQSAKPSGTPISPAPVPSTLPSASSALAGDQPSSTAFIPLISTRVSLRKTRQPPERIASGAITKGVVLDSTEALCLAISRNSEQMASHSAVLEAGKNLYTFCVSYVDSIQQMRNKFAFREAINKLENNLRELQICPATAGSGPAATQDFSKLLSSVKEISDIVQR
Sequence of Hck (P08631 whole entry, species assumed): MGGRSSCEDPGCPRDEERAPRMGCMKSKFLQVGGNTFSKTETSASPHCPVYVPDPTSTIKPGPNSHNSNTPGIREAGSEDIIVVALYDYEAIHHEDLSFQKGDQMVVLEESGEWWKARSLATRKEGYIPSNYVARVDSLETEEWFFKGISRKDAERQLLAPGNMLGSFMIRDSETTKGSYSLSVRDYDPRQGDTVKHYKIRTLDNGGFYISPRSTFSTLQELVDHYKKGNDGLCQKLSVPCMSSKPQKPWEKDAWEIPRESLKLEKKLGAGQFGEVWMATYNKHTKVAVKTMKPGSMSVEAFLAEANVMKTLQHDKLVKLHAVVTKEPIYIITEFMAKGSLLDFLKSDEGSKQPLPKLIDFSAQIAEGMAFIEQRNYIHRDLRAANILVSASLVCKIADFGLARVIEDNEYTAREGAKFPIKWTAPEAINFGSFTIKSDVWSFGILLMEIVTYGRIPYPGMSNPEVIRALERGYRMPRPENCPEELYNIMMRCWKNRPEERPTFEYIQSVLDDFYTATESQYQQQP
Sequence of Fyn (P06241 whole entry, species assumed): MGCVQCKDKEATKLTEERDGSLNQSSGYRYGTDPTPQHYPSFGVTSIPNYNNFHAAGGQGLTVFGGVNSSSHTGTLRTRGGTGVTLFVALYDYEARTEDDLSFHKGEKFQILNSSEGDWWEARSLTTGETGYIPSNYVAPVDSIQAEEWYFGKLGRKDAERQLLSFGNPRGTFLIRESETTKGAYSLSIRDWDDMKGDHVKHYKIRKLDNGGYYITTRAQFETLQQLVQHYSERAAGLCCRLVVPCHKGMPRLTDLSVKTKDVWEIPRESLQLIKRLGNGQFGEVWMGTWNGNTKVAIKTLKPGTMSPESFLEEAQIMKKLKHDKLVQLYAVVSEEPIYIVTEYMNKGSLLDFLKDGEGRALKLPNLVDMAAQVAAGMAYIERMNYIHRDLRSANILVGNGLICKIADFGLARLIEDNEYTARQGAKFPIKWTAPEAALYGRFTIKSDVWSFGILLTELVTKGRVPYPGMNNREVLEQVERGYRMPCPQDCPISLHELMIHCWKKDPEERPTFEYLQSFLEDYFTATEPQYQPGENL

Cc1ccc(-n2nc(C(C)(C)C)cc2NC(=O)NCc2cc(F)ccc2Oc2ccc3c(cnn3CCO)c2)cc1 [Compound 72, 1-(3-tert-butyl-1-p-tolyl-1H-pyrazol-5-yl)-3-(5-fluoro-2-(1-(2-hydroxyethyl)-1H-indazol-5-yloxy)benzyl)urea]
IC50 (CYP2D6): 3000 nM | IC50 (Abl): 4 nM | IC50 (FGFR1): 28 nM | AUC (Pharmacokinetics in rat; IV: 1 mg/kg): AUC = 4.7 μg-hr/kg | ER (Pharmacokinetics in rat; IV: 1 mg/kg): ER = 4.6% | AUC (Pharmacokinetics in rat; Oral: 30 mg/kg): AUC = 35 μg-hr/kg | F (Pharmacokinetics in rat; Oral: 30 mg/kg): F = 15% | clearance (Pharmacokinetics in rat; [5]): 3.2 mL/min/kg | half-life (Pharmacokinetics in rat; [5]): 3.9 h | Vd (Pharmacokinetics in rat; male, Sprague-Dawley, plasma, IV: 1 mg/kg, read-out: Vz): 0.048 L/kg | Cmax (Pharmacokinetics in rat; male, Sprague-Dawley, plasma, Oral: 30 mg/kg): 4500 ng/mL | solubility (Solubility determination; aqueous buffer, pH 3.0): < 5 µg/mL | solubility (Solubility determination; pH 7.4, aqueous buffer): < 5 µg/mL | AUC ([1]; IV: 1 mg/kg): AUC = 6.6 μg-hr/kg | ER ([1]; IV: 1 mg/kg): ER = 2.8% | AUC ([1]; Oral: 10 mg/kg): AUC = 10.5 μg-hr/kg | F ([1]; Oral: 10 mg/kg): F = 16% | clearance [1, 6]: 2.6 mL/min/kg | half-life [1, 6]: 3.9 h | Vd ([1]; female, Balb/c, plasma, IV: 1 mg/kg, read-out: Vz): 0.085 L/kg | Cmax ([1]; female, Balb/c, plasma, Oral: 10 mg/kg): 1800 ng/mL | IC50 (Tie2): 1 nM | disease course by the end of the study ([2]; rat CIA, 10 mg/kg PO): induced disease regression | parameters associated with the disease model ([2]; rat CIA, 0.3, 1, 3 or 10 mg/kg PO): dose-dependently improved all of the parameters | ED50 ([2]; rat CIA, read-out: apparent ED50, ankle diameter): 1.5 mg/kg | ED50 ([2]; rat CIA, read-out: apparent ED50, histopathology): 3 mg/kg | body weight loss (RPMI 8226 cells; RPMI 8226 tumor-bearing Scid-beige mice, throughout treatment): less than 10% | effect on tumor growth (RPMI 8226 cells; RPMI 8226 tumors, 100 mg/kg PO, BID×14, dosed as Compound 74): statistically significant effect on tumor growth | % Tumor growth inhibition (TGI) (RPMI 8226 cells; RPMI 8226 tumors, 100 mg/kg active drug, PO, BID×14, dosed as Compound 74): 67% | IC50 (p38 pathway): 2 nM | IC50 (K562): 62 nM | IC50 (Lyn): 25 nM | IC50 (Fyn): 41 nM | IC50 (CYP1A2): 25000 nM | IC50 (CYP2C19): 25000 nM | Micronucleus (in vitro) (micronucleus): Negative | IC50 [3]: 30 nM | IC50 (Hck): 26 nM | AUC ([4]; IV: 1 mg/kg): AUC = 4.1 μg-hr/kg | ER ([4]; IV: 1 mg/kg): ER = 20% | AUC ([4]; Oral: 10 mg/kg): AUC = 7.6 μg-hr/kg | F ([4]; Oral: 10 mg/kg): F = 38% | clearance ([4]; male, plasma, IV: 1 mg/kg): 8.8 mL/min/kg | half-life ([4]; male, plasma, IV: 1 mg/kg): 4.6 h | Vd ([4]; male, plasma, IV: 1 mg/kg, read-out: Vz): 3.2 L/kg | Cmax ([4]; male, plasma, Oral: 10 mg/kg): 260 ng/mL | IC50 (RPMI 8226; Homo sapiens, read-out: Proliferation IC50): > 10000 nM | anti-proliferative effect (RPMI 8226; over the indicated concentration range): not anti-proliferative | IC50 (Arg): 10 nM
